In patent US9382203B2, “N-carbamoylmethyl-4-(R)-phenyl-2-pyrrolidinone, method of its preparation and pharmaceutical use” (Joint Stock Company (JSC) “OLAINFARM”, priority 2006, dated 2016):
Marks after values point to notes of the source that are not given here.

Legend:
Type in all cases: in vivo
[1] = test system: male ICR mice; test: Muscle relaxant activity, chimney test; settings: Mus musculus, ip; i.p. administration in dosages 50; 100; 250 and 500 mg/kg
[2] = test system: male ICR mice; test: Porsolt forced swim test (FST); settings: for Immobility in FST (in words): after preliminary treatment, mice; for Immobilization time: i.p. 100 mg/kg, 1 hour before the test, male ICR mice
[3] = test system: male ICR mice; test: Muscle relaxant activity, traction test; settings: Mus musculus, ip; i.p. administration in dosages 50; 100; 250 and 500 mg/kg
[4] = test system: male ICR mice; test: Analgesic effect, hot plate test; settings: Mus musculus, ip; i.p. administration in dosages 50; 100; 250 and 500 mg/kg
[5] = test system: male ICR mice; test: Open field test, locomotor activity; settings: for Horizontal activity counts / Vertical activity counts / Exploratory activity counts: male ICR mice
[6] = test system: male ICR mice; test: Muscle relaxant activity, rota rod test; settings: Mus musculus, ip; i.p. administration in dosages 50; 100; 250 and 500 mg/kg

NC(=O)CN1C[C@H](c2ccccc2)CC1=O [S-Carphedon, N-Carbamoylmethyl-4(S)-phenyl-2-pyrrolidinone]
ED50 [1]: 286 ± 78 mg/kg | Immobility in FST (in words) [2]: immobilization in response to stress factor | Immobilization time [2]: 110 ± 12 s | ED50 [3]: 548 ± 75 mg/kg | ED50 [4]: 50 ± 63 mg/kg | Horizontal activity counts ([5]; 30 min after i.p. 50 mg/kg): 56.3 ± 5.7 counts | Vertical activity counts ([5]; 30 min after i.p. 50 mg/kg): 7.0 ± 1.6 counts | Exploratory activity counts ([5]; 60 min after i.p. 50 mg/kg): 7.8 ± 4.2 counts | Vertical activity counts ([5]; 60 min after i.p. 50 mg/kg): 7.0 ± 2.8 counts | Exploratory activity counts ([5]; 120 min after i.p. 50 mg/kg): 11.5 ± 2.8 counts | Horizontal activity counts ([5]; 120 min after i.p. 50 mg/kg): 36.4 ± 7.1 counts | Vertical activity counts ([5]; 120 min after i.p. 50 mg/kg): 4.9 ± 1.7 counts | ED50 [6]: 459 ± 87 mg/kg

NC(=O)CN1C[C@@H](c2ccccc2)CC1=O [R-Carphedon, N-Carbamoylmethyl-4(R)-phenyl-2-pyrrolidinone]
ED50 [1]: 199 ± 38 mg/kg | Immobility in FST (in words) [2]: did not spent any time immobile | Immobilization time [2]: 0^## sec | ED50 [3]: 456 ± 122 mg/kg | ED50 [4]: 10 ± 42 mg/kg | Exploratory activity counts ([5]; 30 min after i.p. 50 mg/kg): 15.5 ± 2.9 counts | Vertical activity counts ([5]; 30 min after i.p. 50 mg/kg): 10.0 ± 1.5 counts | Exploratory activity counts ([5]; 60 min after i.p. 50 mg/kg): 16.4 ± 3.6 counts | Vertical activity counts ([5]; 60 min after i.p. 50 mg/kg): 12.5 ± 3.2 counts | Exploratory activity counts ([5]; 120 min after i.p. 50 mg/kg): 17.8 ± 4.7 counts | Vertical activity counts ([5]; 120 min after i.p. 50 mg/kg): 11.6 ± 4.0 counts | Activity at the end of the 120 min observation period relative to S-Carphedon ([5]; i.p. 50 mg/kg): about two times higher | Animal activity in open field test (in words) ([5]; i.p. 50 mg/kg, 120 min observation period): prolonged and stable increase in animal activity | ED50 [6]: 193 ± 26 mg/kg
